# From EP4768499A1, “MACROCYCLIC PEPTIDE COMPOUND HAVING CELL MEMBRANE PERMEABILITY AND METABOLIC STABILITY, AND LIBRARY CONTAINING SAME” (Chugai Seiyaku Kabushiki Kaisha, priority 2023, dated 2025)
# Starred links: 1 amine or outer side, 2 acyl side, 3 side chain; linkers in the order of their positions; H or OH if unused. Positions of bridges follow the written chain, without caps; N, C: chain ends. Non-standard residues stand in square brackets, D forms with d. Residues, ends and D or L forms follow the SMILES beside them. *: point of attachment. NMeF = CN[C@@H](Cc1ccccc1)C(=O)O; NMeGABA = CN(CCCC(=O)[*:2])[*:1]; NMeI = CC[C@H](C)[C@H](NC)C(=O)O; NMeT = CN[C@H](C(=O)O)[C@@H](C)O; hPhe = N[C@@H](CCc1ccccc1)C(=O)O; NMeβAla = CN(CCC(=O)[*:2])[*:1]; NMeL = CN[C@@H](CC(C)C)C(=O)O; dNMeV = CN[C@@H](C(=O)O)C(C)C; NMeV = CN[C@H](C(=O)O)C(C)C; d(β3hA) = C[C@@H](N)CC(=O)O; NMeAbu = CC[C@H](NC)C(=O)O; NMeA = CN[C@@H](C)C(=O)O; Piperidide = C1CCN(*)CC1; dNMeA = CN[C@H](C)C(=O)O; Abu = CC[C@H](N)C(=O)O; NBuGly = CCCCNCC(=O)O; Sar = CNCC(=O)O; tBu = CC(C)(C)*
# Legend:
# [1] = Metabolic stability test: liver microsomal stability assay; type: in vitro ADME, mouse; details: mouse liver microsomes 0.5 mg protein/mL, compound 1 µM; for microsomal CLint at 1 µM: male, pH 7.4, presence of NADPH, read-out: Mouse Hepatic Microsome CLh,int NADPH(+); for Mouse Hepatic Microsome CLh,int NADPH(-): absence of NADPH
# [2] = Membrane permeability test using Caco-2 cells with preincubation; type: in vitro ADME; details: Caco-2; preincubation 20 to 24 hours; Apical FaSSIF/HBSS pH 6.0, Basal HBSS 4% BSA pH 7.4; 180 minutes; read-out: Caco2 Papp
# [3] = tested on: Caco-2 cells; assay: as above; type: in vitro ADME; details: Caco-2 cells, preincubation 20 to 24 hours; apical FaSSIF/HBSS 1% DMSO pH 6.0, basal HBSS 4% BSA pH 7.4; basal sample at 180 minutes
Compound,microsomal CLint at 1 µM [1] [µL/min/mg],"Mouse Hepatic Microsome CLh,int NADPH(-) [1] [µL/min/mg Protein]",Papp A→B [2] [×10⁻⁶ cm/s],Caco2 Papp (10^-6 cm/sec) [3]
CC[C@@H]1NC(=O)[C@@H]2CCCN2C(=O)[C@H](C(C)C)NC(=O)[C@H](Cc2ccccc2)N(C)C(=O)[C@H](C)N(C)C(=O)[C@H](CC(C)C)N(C)C(=O)[C@H]([C@@H](C)O)N(C)C(=O)[C@H](CC(C)C)N(C)C(=O)[C@H](CC)NC(=O)[C@H](Cc2ccccc2)N(C)C(=O)CN(C)C(=O)C[C@@H](C(=O)N2CCCCC2)NC(=O)[C@H](C(C)C)N(C)C1=O [pd122] ([Sar][NMeF][Abu][NMeL][NMeT][NMeL][NMeA][NMeF]VP[Abu][NMeV]D-Piperidide; lactam N-13),11.1,9.6,0.06,0.06 10^-6 cm/sec
CCCCN1CC(=O)N(C)[C@@H](CC(C)C)C(=O)N[C@@H](COC(C)(C)C)C(=O)N(C)[C@@H](Cc2ccccc2)C(=O)N(C)[C@@H](C)C(=O)N(C)[C@@H](C(C)C)C(=O)N[C@H](C(=O)N2CCCCC2)CC(=O)N(C)[C@H](C(C)C)C(=O)N(C)[C@@H](Cc2ccccc2)C(=O)N2CCC[C@H]2C(=O)N(C)[C@@H](C(C)C)C(=O)N(C)[C@@H](CC(C)C)C(=O)N[C@@H]([C@@H](C)O)C1=O [pd123] ([dNMeV][NMeF]P[NMeV][NMeL]T[NBuGly][NMeL]S(tBu)[NMeF][NMeA][NMeV]D-Piperidide; lactam N-13),31,36.0,0.56,0.56 10^-6 cm/sec
CC[C@H](C)[C@H]1C(=O)N2CCC[C@H]2C(=O)N(C)[C@@H](C(C)C)C(=O)N(C)[C@@H](Cc2ccccc2)C(=O)N(C)[C@@H](C)C(=O)N(C)[C@@H](CC(C)C)C(=O)N[C@@H]([C@@H](C)O)C(=O)N(C)[C@@H](C)C(=O)N[C@@H](CCc2ccccc2)C(=O)N(C)[C@@H](CC(C)C)C(=O)N[C@H](C(=O)N2CCCCC2)CC(=O)N(C)CCCC(=O)N(C)[C@@H](CC(C)C)C(=O)N1C [pd124] ([NMeGABA][NMeL][NMeI]P[NMeV][NMeF][NMeA][NMeL]T[NMeA][hPhe][NMeL]D-Piperidide; lactam N-13),16.9,16.6,0.13,0.13 10^-6 cm/sec
CC[C@H](C)[C@H]1C(=O)N(C)[C@@H]([C@@H](C)O)C(=O)N(C)[C@@H](CC)C(=O)N(C)[C@@H](CC(C)C)C(=O)N2CCC[C@H]2C(=O)N[C@H](C(=O)N2CCCCC2)CC(=O)N(C)[C@@H](C)C(=O)N[C@@H](CC(C)C)C(=O)N(C)[C@@H](CC(C)C)C(=O)N(C)[C@@H](C)C(=O)N2CCC[C@H]2C(=O)N[C@@H](CCc2ccccc2)C(=O)N(C)[C@@H](CC(C)C)C(=O)N1C [pd125] ([NMeA]L[NMeL][NMeA]P[hPhe][NMeL][NMeI][NMeT][NMeAbu][NMeL]PD-Piperidide; lactam N-13),16.7,18.1,0.13,0.13 10^-6 cm/sec
CC[C@H]1C(=O)N(C)CC(=O)N[C@@H]([C@@H](C)O)C(=O)N(C)[C@@H](CC(C)C)C(=O)N[C@@H](CC(C)C)C(=O)N(C)[C@@H](Cc2ccccc2)C(=O)N(C)[C@@H](C(C)C)C(=O)N2CCC[C@H]2C(=O)N(C)[C@@H](C)C(=O)N(C)[C@@H](C(C)C)C(=O)N[C@H](C(=O)N2CCCCC2)CC(=O)N(C)[C@@H](CC(C)C)C(=O)N(C)[C@@H](Cc2ccccc2)C(=O)N1C [pd126] ([NMeL][NMeF][NMeAbu][Sar]T[NMeL]L[NMeF][NMeV]P[NMeA][NMeV]D-Piperidide; lactam N-13),23.3,18.2,0.88,0.88 10^-6 cm/sec
CC[C@H](C)[C@@H]1NC(=O)[C@H](CC(C)C)N(C)C(=O)[C@H](CC(C)C)NC(=O)[C@H](C)N(C)C(=O)C[C@@H](C)NC(=O)[C@H](CC(C)C)NC(=O)[C@H](CC(C)C)N(C)C(=O)CN(C)C(=O)[C@H](C(C)C)NC(=O)[C@H]([C@@H](C)CC)N(C)C(=O)[C@H](CC(C)C)N(C)C(=O)[C@H](C)NC(=O)[C@H](Cc2ccccc2)N(C)C1=O [pd127] (cyclo(A[NMeL][NMeI]V[Sar][NMeL]L[d(β3hA)][NMeA]L[NMeL]I[NMeF])),41.6,28.0,0.36,0.36 10^-6 cm/sec
CC[C@@H]1NC(=O)CN(C)C(=O)[C@H]([C@@H](C)O)NC(=O)[C@H](CC(C)C)N(C)C(=O)[C@H](C(C)C)NC(=O)[C@H](Cc2ccccc2)N(C)C(=O)[C@H](C)N(C)C(=O)[C@@H](C)NC(=O)C[C@@H](C)NC(=O)[C@H](C(C)C)N(C)C(=O)[C@H](Cc2ccccc2)N(C)C(=O)[C@H](COC(C)(C)C)NC(=O)[C@H](CC(C)C)N(C)C1=O [pd128] (cyclo([Abu][NMeL]S(tBu)[NMeF][NMeV][d(β3hA)][dA][NMeA][NMeF]V[NMeL]T[Sar])),18,11.3,0.05,0.05 10^-6 cm/sec

# Now from value to compound:
microsomal CLint at 1 µM [1] [µL/min/mg],"Mouse Hepatic Microsome CLh,int NADPH(-) [1] [µL/min/mg Protein]",Papp A→B [2] [×10⁻⁶ cm/s],Caco2 Papp (10^-6 cm/sec) [3],Compound
76.5,19.7,0.71,0.71 10^-6 cm/sec,CC[C@@H]1NC(=O)[C@H](CC(C)C)N(C)C(=O)[C@H]([C@@H](C)CC)NC(=O)CN(C)C(=O)C[C@@H](C)NC(=O)[C@H](C(C)C)N(C)C(=O)[C@H](COC(C)(C)C)NC(=O)[C@H](CC(C)C)N(C)C(=O)[C@H](Cc2ccccc2)N(C)C(=O)[C@H](CC(C)C)NC(=O)CN(C)C(=O)[C@H]([C@@H](C)O)NC(=O)[C@H](CC(C)C)N(C)C1=O [pd129] (cyclo([Abu][NMeL]T[Sar]L[NMeF][NMeL]S(tBu)[NMeV][d(β3hA)][Sar]I[NMeL]))
22.7,6.8,3.88,3.88 10^-6 cm/sec,CC[C@H](C)[C@@H]1NC(=O)[C@H](Cc2ccccc2)N(C)C(=O)[C@H](C(C)C)NC(=O)[C@@H](C)N(C)C(=O)C[C@@H](C)NC(=O)[C@H](C(C)C)N(C)C(=O)[C@H](Cc2ccccc2)N(C)C(=O)[C@H](COC(C)(C)C)NC(=O)[C@H](CC(C)C)N(C)C(=O)[C@H](C)N(C)C(=O)[C@@H]2CCCN2C(=O)[C@H]([C@@H](C)O)NC(=O)[C@H](CC(C)C)N(C)C1=O [pd130] (cyclo(I[NMeL]TP[NMeA][NMeL]S(tBu)[NMeF][NMeV][d(β3hA)][dNMeA]V[NMeF]))
17.8,13.5,2.18,2.18 10^-6 cm/sec,CC[C@H]1C(=O)N(C)[C@@H](C)C(=O)N(C)[C@@H](C(C)C)C(=O)N[C@H](C)CC(=O)N[C@H](C(C)C)C(=O)N(C)[C@@H](CC(C)C)C(=O)N[C@@H](CC(C)C)C(=O)N(C)[C@@H](C(C)C)C(=O)N(C)[C@@H](CC(C)C)C(=O)N(C)CC(=O)N[C@@H]([C@@H](C)O)C(=O)N(C)[C@@H](Cc2ccccc2)C(=O)N[C@@H](COC(C)(C)C)C(=O)N1C [pd131] (cyclo(L[NMeV][NMeL][Sar]T[NMeF]S(tBu)[NMeAbu][NMeA][NMeV][d(β3hA)][dV][NMeL]))
16.2,7.7,0.36,0.36 10^-6 cm/sec,CC[C@H](C)[C@@H]1NC(=O)[C@H](C)N(C)C(=O)[C@H]([C@@H](C)O)N(C)C(=O)[C@H](CC(C)C)N(C)C(=O)[C@H](C(C)C)NC(=O)[C@H](Cc2ccccc2)N(C)C(=O)[C@H](Cc2ccccc2)N(C)C(=O)[C@H](C)NC(=O)[C@H](CC)N(C)C(=O)[C@H]([C@@H](C)CC)NC(=O)CCCN(C)C(=O)C[C@@H](C)NC(=O)[C@H](C(C)C)N(C)C1=O [pd132] (cyclo(A[NMeF][NMeF]V[NMeL][NMeT][NMeA]I[NMeV][d(β3hA)][NMeGABA]I[NMeAbu]))
25.6,23.6,0.53,0.53 10^-6 cm/sec,CC[C@H](C)[C@@H]1NC(=O)[C@H](CCc2ccccc2)NC(=O)[C@H](CC(C)C)N(C)C(=O)[C@H](C)N(C)C(=O)[C@H](Cc2ccccc2)N(C)C(=O)[C@@H]2CCCN2C(=O)[C@H]([C@@H](C)CC)NC(=O)[C@H](CC(C)C)N(C)C(=O)CCN(C)C(=O)C[C@@H](C)NC(=O)[C@H](CC(C)C)N(C)C(=O)[C@H]([C@@H](C)O)NC(=O)[C@H](C)N(C)C1=O [pd133] (cyclo(I[NMeA]T[NMeL][d(β3hA)][NMeβAla][NMeL]IP[NMeF][NMeA][NMeL][hPhe]))
38.5,11.4,0.75,0.75 10^-6 cm/sec,CC[C@H](C)[C@@H]1NC(=O)[C@H](CC(C)C)N(C)C(=O)[C@H](C)N(C)C(=O)[C@H](C)N(C)C(=O)C[C@@H](C)NC(=O)[C@H](CC(C)C)NC(=O)[C@H](CC(C)C)N(C)C(=O)CN(C)C(=O)[C@H]([C@@H](C)O)NC(=O)[C@H]([C@@H](C)CC)N(C)C(=O)[C@H](CC(C)C)N(C)C(=O)[C@H](C(C)C)NC(=O)[C@H](Cc2ccccc2)N(C)C1=O [pd134] (cyclo(I[NMeF]V[NMeL][NMeI]T[Sar][NMeL]L[d(β3hA)][NMeA][NMeA][NMeL]))
27.2,28.8,0.53,0.53 10^-6 cm/sec,CC[C@H](C)[C@@H]1NC(=O)[C@@H]2CCCN2C(=O)[C@H](C(C)C)N(C)C(=O)[C@@H](C)N(C)C(=O)C[C@@H](C)NC(=O)[C@H](C(C)C)N(C)C(=O)[C@H](Cc2ccccc2)N(C)C(=O)[C@H](COC(C)(C)C)NC(=O)[C@H](CC(C)C)N(C)C(=O)[C@H](C)N(C)C(=O)[C@H](CC(C)C)N(C)C(=O)[C@H]([C@@H](C)O)NC(=O)[C@H](Cc2ccccc2)N(C)C1=O [pd136] (cyclo(I[NMeF]T[NMeL][NMeA][NMeL]S(tBu)[NMeF][NMeV][d(β3hA)][dNMeA][NMeV]P))
